SMILES strings stand for the structures.

In experiment [1] the target is T1, recombinant human ALK5 (TGF-βR1) protein (Homo sapiens, UniProt P36897).
T1 construct: purchased Life Technologies PR9075A
T1 sequence (P36897 34-503): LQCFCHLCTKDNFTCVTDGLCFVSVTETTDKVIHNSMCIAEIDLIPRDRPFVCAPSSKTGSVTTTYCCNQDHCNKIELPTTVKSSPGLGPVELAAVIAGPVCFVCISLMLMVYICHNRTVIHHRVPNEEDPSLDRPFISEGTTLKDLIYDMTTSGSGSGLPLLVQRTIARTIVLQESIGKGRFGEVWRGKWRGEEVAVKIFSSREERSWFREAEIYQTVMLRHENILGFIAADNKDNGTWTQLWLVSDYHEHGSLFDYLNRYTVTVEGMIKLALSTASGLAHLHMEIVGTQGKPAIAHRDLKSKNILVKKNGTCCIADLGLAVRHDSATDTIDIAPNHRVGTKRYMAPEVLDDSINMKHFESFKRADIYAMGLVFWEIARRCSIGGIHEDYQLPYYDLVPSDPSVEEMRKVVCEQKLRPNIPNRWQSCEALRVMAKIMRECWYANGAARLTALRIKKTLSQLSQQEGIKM
In words: Biochemical ALK5 (TGF-βR1) assay to measure pKi (LANCE Ultra ULight kinase assay). The conditions noted are these: apparent pKi from pIC50 by Cheng-Prusoff, read-out: ALK5 pKi (converted). An outline of the steps: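 Compounds (10 μM to 25 pM) preincubated 60 minutes at room temperature with enzyme, then reaction run 60 minutes at 37° C with ATP added as 125 μM (5× final). Stopped with EDTA plus Eu-anti-phospho-Topoisomerase 2-alpha (Thr1342) antibody, TR-FRET read at 665 nm; pIC50 converted to pKi via Cheng-Prusoff.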

Experiment [2] concerns TGF-β-stimulated SMAD3 phosphorylation in BEAS-2B cells. In words: Cellular ALK5 potency assay, inhibition of TGF-β stimulated pSMAD3 formation in BEAS-2B cells. Format: cell-based. The conditions noted are these: Homo sapiens; inhibition of TGF-β stimulated pSMAD3 formation, BEAS-2B cells; read-out: BEAS2B pIC50 (converted). In a few lines: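 Potency is reported as pIC50, derived from concentration-dependent reduction of pSMAD3 AlphaLISA signal against TGF-β-stimulated cells without compound. BEAS-2B cells received compound for 1 h before a 30-min stimulation with 10 ng/mL TGF-β.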

`COCC1CN(c2cnc3ccc(-c4c[nH]nc4-c4cccc(C)n4)nc3c2)CCN1C` (racemic) [Compound 354, 2-[3-(6-methyl-2-pyridyl)-1H-pyrazol-4-yl]-7-[rac-(3R)-3-(methoxymethyl)-4-methyl-piperazin-1-yl]-1,5-naphthyridine]: the Ki in experiment [1] is less than 0.0316 nM. Also, in experiment [2], the IC50 was 25.1 to 158 nM.
For the compound `CCN1CCN(CCNc2cnc3ccc(-c4c[nH]nc4-c4cccc(C)n4)nc3c2)CC1` [Compound 508, N-[2-(4-ethylpiperazin-1-yl)ethyl]-6-[3-(6-methyl-2-pyridyl)-1H-pyrazol-4-yl]-1,5-naphthyridin-3-amine], in experiment [1], the Ki is 0.0398 to 0.316 nM. For the same compound, the IC50 in experiment [2] is 25.1 to 158 nM.
The matching figures for `Cc1cccc(-c2[nH]cnc2-c2ccc3ncc(-c4cccc(C(=O)OC5CCNCC5)c4)cc3c2)n1` [Compound 224, 4-piperidyl 3-[6-[5-(6-methyl-2-pyridyl)-1H-imidazol-4-yl]-3-quinolyl]benzoate]: 0.0398 to 0.316 nM and 25.1 to 158 nM.
Regarding `Cc1cccc(-c2[nH]ncc2-c2ccc3ncc(C(=O)OCC4CNC4)cc3n2)n1` [Compound 419, azetidin-3-ylmethyl 6-[5-(6-methyl-2-pyridyl)-1H-pyrazol-4-yl]-1,5-naphthyridine-3-carboxylate], the Ki in experiment [1] is 0.0398 to 0.316 nM. For the same compound, the IC50 in experiment [2] was 25.1 to 158 nM.
The corresponding values for `CNCc1ccnc2ccc(-c3nc[nH]c3-c3cccc(C)n3)cc12` [Compound 100, N-methyl-1-[6-[5-(6-methyl-2-pyridyl)-1H-imidazol-4-yl]-4-quinolyl]methanamine] are 0.398 to 3.16 nM and 25.1 to 158 nM.
The matching figures for `Cc1cccc(-c2n[nH]cc2-c2ccc3ncc(-c4cccnc4O)cc3n2)n1` [Compound 585, 3-[6-[3-(6-methyl-2-pyridyl)-1H-pyrazol-4-yl]-1,5-naphthyridin-3-yl]pyridin-2-ol]: less than 0.0316 nM and 25.1 to 158 nM.
The corresponding values for `Cc1cccc(-c2[nH]cnc2-c2ccc3ncc(-c4ncc(C(=O)OCCN5CCNCC5)cn4)cc3c2)n1` [Compound 1125, 2-piperazin-1-ylethyl 2-[6-[5-(6-methyl-2-pyridyl)-1H-imidazol-4-yl]-3-quinolyl]pyrimidine-5-carboxylate] are less than 0.0316 nM and 25.1 to 158 nM.
In the case of `Cc1cccc(-c2[nH]cnc2-c2ccc3ncc(-c4ccc(C(=O)OCCN5CCNCC5)cn4)cc3c2)n1` [Compound 1025, 2-piperazin-1-ylethyl 6-[6-[5-(6-methyl-2-pyridyl)-1H-imidazol-4-yl]-3-quinolyl]pyridine-3-carboxylate], in experiment [1], the Ki is 0.0398 to 0.316 nM. Besides, the IC50 in experiment [2] was 25.1 to 158 nM.
The matching figures for `Cc1cccc(-c2n[nH]cc2-c2ccc3ncc(N4CC5CN(C(C)C)CC54)cc3n2)n1` (centres unmarked) [Compound 186, 7-(3-isopropyl-3,6-diazabicyclo[3.2.0]heptan-6-yl)-2-[3-(6-methyl-2-pyridyl)-1H-pyrazol-4-yl]-1,5-naphthyridine]: 0.398 to 3.16 nM and 25.1 to 158 nM.
The corresponding values for `Cc1cccc(-c2[nH]ncc2-c2ccc3nccc(C(=O)O[C@H]4CC[C@@](C)(N)CC4)c3c2)n1` [Compound 1155, (4-amino-4-methyl-cyclohexyl) 6-[5-(6-methyl-2-pyridyl)-1H-pyrazol-4-yl]quinoline-4-carboxylate] are 3.98 to 31.6 nM and 200 to 1260 nM.
Turning to `Cc1cccc(-c2n[nH]cc2-c2ccc3nccc(Cl)c3n2)n1` [Compound 851, 8-chloro-2-[3-(6-methyl-2-pyridyl)-1H-pyrazol-4-yl]-1,5-naphthyridine], the Ki in experiment [1] is 0.0398 to 0.316 nM. The IC50 in experiment [2] is less than 20 nM.
The corresponding values for `Cc1cccc(-c2n[nH]cc2-c2ccc3ncc(N4CCC[C@@H]4CO)cc3n2)n1` [Compound 270, [(2R)-1-[6-[3-(6-methyl-2-pyridyl)-1H-pyrazol-4-yl]-1,5-naphthyridin-3-yl]pyrrolidin-2-yl]methanol] are 0.0398 to 0.316 nM and 25.1 to 158 nM.
The matching figures for `Cc1cccc(-c2[nH]cnc2-c2ccc3ncc(-c4ccc(C(=O)O[C@@H]5CCN(C)C5)nc4)cc3c2)n1` [Compound 273, (R)-1-methylpyrrolidin-3-yl 5-(6-(5-(6-methylpyridin-2-yl)-1H-imidazol-4-yl)quinolin-3-yl)picolinate]: less than 0.0316 nM and 25.1 to 158 nM.
Consider `Cc1cccc(-c2n[nH]cc2-c2ccc3ncc(N4CCN(Cc5cccnc5)CC4)cc3n2)n1` [Compound 132, 2-[3-(6-methyl-2-pyridyl)-1H-pyrazol-4-yl]-7-[4-(3-pyridylmethyl)piperazin-1-yl]-1,5-naphthyridine], for which the Ki in experiment [1] is 0.0398 to 0.316 nM. Moreover, in experiment [2], the IC50 was 25.1 to 158 nM.
As for `Cc1cccc(-c2n[nH]cc2-c2ccc3nccc(C(N)=O)c3n2)n1` [Compound 806, 6-[3-(6-methyl-2-pyridyl)-1H-pyrazol-4-yl]-1,5-naphthyridine-4-carboxamide], in experiment [1], the Ki was 0.398 to 3.16 nM. In addition, in experiment [2], the IC50 was 25.1 to 158 nM.
The corresponding values for `Cc1cccc(-c2[nH]cnc2-c2ccc3ncc(-c4ccc5c(c4)CC(N)C5)cc3c2)n1` (centres unmarked) [Compound 163, 5-[6-[5-(6-methyl-2-pyridyl)-1H-imidazol-4-yl]-3-quinolyl]indan-2-amine] are 0.0398 to 0.316 nM and less than 20 nM.
For the compound `Cc1cccc(-c2[nH]cnc2-c2ccc3ncc(C4=CCC(NCc5ccccc5)CC4)cc3c2)n1` (centres unmarked) [Compound 252, N-benzyl-4-[6-[5-(6-methyl-2-pyridyl)-1H-imidazol-4-yl]-3-quinolyl]cyclohex-3-en-1-amine], the Ki in experiment [1] was less than 0.0316 nM. In addition, in experiment [2], the IC50 is 25.1 to 158 nM.
Turning to `COC(=O)c1coc(-c2cnc3ccc(-c4c[nH]nc4-c4cccc(C)n4)nc3c2)n1` [Compound 582, methyl 2-[6-[3-(6-methyl-2-pyridyl)-1H-pyrazol-4-yl]-1,5-naphthyridin-3-yl]oxazole-4-carboxylate], the Ki in experiment [1] is less than 0.0316 nM. In addition, in experiment [2], the IC50 is 25.1 to 158 nM.
The corresponding values for `Cc1cccc(-c2n[nH]cc2-c2ccc3nccc(-c4cn[nH]c4)c3n2)n1` [Compound 834, 2-[3-(6-methyl-2-pyridyl)-1H-pyrazol-4-yl]-8-(1H-pyrazol-4-yl)-1,5-naphthyridine] are 0.0398 to 0.316 nM and less than 20 nM.
As for `Cc1cccc(-c2[nH]cnc2-c2ccc3ncc(-c4cncc(C(=O)O[C@H]5CCNC5)c4)cc3c2)n1` [Compound 719, [(3S)-pyrrolidin-3-yl] 5-[6-[5-(6-methyl-2-pyridyl)-1H-imidazol-4-yl]-3-quinolyl]pyridine-3-carboxylate], the Ki in experiment [1] is 0.0398 to 0.316 nM. The IC50 in experiment [2] was 200 to 1260 nM.
Take `Cc1cccc(-c2n[nH]cc2-c2ccc3nccc(CN4CCN(CC(=O)O)CC4)c3n2)n1` [Compound 822, 2-[4-[[6-[3-(6-methyl-2-pyridyl)-1H-pyrazol-4-yl]-1,5-naphthyridin-4-yl]methyl]piperazin-1-yl]acetic acid]: the Ki in experiment [1] was 0.398 to 3.16 nM. The IC50 in experiment [2] is 25.1 to 158 nM.
The corresponding values for `Cc1cccc(-c2[nH]cnc2-c2ccc3ncc(C(=O)OCC4CCNCC4)cc3c2)n1` [Compound 741, 4-piperidylmethyl 6-[5-(6-methyl-2-pyridyl)-1H-imidazol-4-yl]quinoline-3-carboxylate] are 0.0398 to 0.316 nM and 25.1 to 158 nM.

Source of the values: patent US11590116B2 (THERAVANCE BIOPHARMA R&D IP, LLC, priority 2019, dated 2023).
